In patent EP0470325A1, “Composition and method to keep under control the reproduction rate of vertebrate animals by means of a composition containing peripheral dopamine agonists” (priority 1990, dated 1992):
Like-named read-outs stand apart in the source and are kept apart here.

Key:
[1] = tested on: prolactin incretion; test: inhibiting action on prolactin incretion after a single oral dose; format: in vivo; settings: single oral dose of 100 mcg/kg b.w., female rats, time after treatment
Experimental: At a single oral dose of 100 micrograms per kg body weight (100 mcg/kg b.w.) in female rats, the inhibiting action on the prolactin incretion remains remarkably high more than 72 hours after treatment.

[2] = tested on: young female rats; test: onset of sexual maturity in young female rats at impuberal stage; format: in vivo; settings: 25 mcg/kg body weight/day per os
[3] = tested on: adult female rats; test: fertility of adult female rats treated before mating; format: in vivo; settings: 25 mcg/kg b.w./day per os for 10 days before mating
[4] = tested on: pregnant rats; test: gestation of treated pregnant rats; format: in vivo; settings: 25 mcg/kg b.w./day per os, control rats had normal delivery
[5] = tested on: adult female rats (Sprague Dawley); test: pup weight and starvation during lactation of treated mother rats; format: in vivo
Experimental: 15 adult female rats (Sprague Dawley) at their second delivery were randomly divided into 3 groups of 5 animals each. One group served as control, the other two groups were treated with different dosages of cabergoline: animals of the former group received it at the dose of 25 mcg/kg b.w./day; animals of the latter one received it at the dose of 100 mcg/kg b.w./day, starting from the day following the delivery.
Cabergoline was administered with a pellet of standard feed for breeding rats (Altromin MT@ of the firm Rieper, Bolzano). After complete consumption of the medicated pellet, food and water were made available "ad libitum".
At the dose of 100 mcg/kg b.w./day 100% of pups starved already within the first week of lactation (see Table 1).

[6] = tested on: mice; settings: oral route, cited from earlier work
[7] = tested on: rats; settings: oral route, cited from earlier work

Compound: C=CCN1C[C@H](C(=O)N(CCCN(C)C)C(=O)NCC)C[C@@H]2c3cccc4[nH]cc(c34)C[C@H]21 [cabergoline, 1-ethyl-3-(3'-dimethylaminopropyl)-3-(6'-allylergoline-8'β-carbonyl)-urea]
- time for which the inhibiting action on the prolactin incretion remains remarkably high [1]: more than 72 hours
- onset of the sexual maturity [2]: remarkably delayed
- fertility [3]: completely inhibited
- gestation [4]: interrupted their gestation after about ten days
- Pups mean weight (in grams) at lactation days 7th ([5]; 25 mcg/kg b.w./day to the mother, 7th day of lactation, mean ± SD): 7.9 ±1.6 grams
- Pups mean weight (in grams) at lactation days 14th ([5]; 25 mcg/kg b.w./day to the mother, 14th day of lactation, mean ± SD): 10.5 ±0.5 grams
- dead pups ([5]; 25 mcg/kg b.w./day to the mother, 14th day of lactation, of 63 pups): 40
- Pups mean weight (in grams) at lactation days 21st ([5]; 25 mcg/kg b.w./day to the mother, 21st day of lactation, mean ± SD): 14.7 ±0.7 grams
- body weight increase of the pups ([5]; 25 mcg/kg b.w./day to the mother, at the 7th, 14th and 21st day of lactation): remarkably reduced
- pups starved ([5]; 25 mcg/kg b.w./day to the mother, within the second week of lactation): about 60%
- dead pups ([5]; 100 mcg/kg b.w./day to the mother, 7th day of lactation, of 65 pups): - (65 dead)
- pups starved ([5]; 100 mcg/kg b.w./day to the mother, within the first week of lactation): 100%
- LD50 (Lethal Dose 50) ([6]; female mice): 200 mg/kg b.w.
- LD50 (Lethal Dose 50) ([6]; male mice): 350 mg/kg b.w.
- LD50 ([7]; female rats (second value of 'respectively')): 350 mg/kg b.w.
- LD50 ([7]; male rats (first value of 'respectively')): 400 mg/kg b.w.
